The values below are quoted from earlier work in patent US9504677B2, “Substituted N-aryl pyridinones” (Auspex Pharmaceuticals, Inc., priority 2007, dated 2016).

The conditions of series [1]: humans.

For the compound `Cc1ccc(=O)n(-c2ccccc2)c1` [Pirfenidone, 5-methyl-1-phenyl-1H-pyridin-2-one], the DNA synthesis result in the series with leiomyoma cells and in the series on myometrial cells was “inhibits DNA synthesis” in each case. Also, the “efficacy in rodent disease models” value in the series with rodent disease models was “effective”. For the same compound, the half-life result in series [1] is “very short”.
